Experimental data from PMC1971568 (British Journal of Cancer, 1990).
Like-named read-outs stand apart in the source and are kept apart here.

Legend:
[1] = in vivo, ip
[2] = Nu/Nu, mouse, in vivo, iv
[3] = tested on: LS174T colonic cell line; set-up: method as in Springer et al., 1990; details: ref Springer et al., 1990; cited from earlier work
[4] = tested on: carboxypeptidase G2 (CPG2); set-up: method as in Bagshawe et al., 1988; details: ref Bagshawe et al., 1988; cited from earlier work
[5] = tested on: CC3 tumours; set-up: method as in Bagshawe et al., 1988; details: single course of two phase prodrug therapy (antibody-enzyme conjugate then prodrug); ref Bagshawe et al., 1988; cited from earlier work
[6] = tested on: human JAR choriocarcinoma cell line; details: cited from earlier work
[7] = Localisation of antibody-enzyme conjugate: enzyme activity in tissues, CC3 model; details: tissue homogenate incubated at 37C with prodrug 34 µg ml-1 (87 µM)

## O=C(O)CC[C@H](NC(=O)c1ccc(N(CCCl)CCCl)cc1)C(=O)O [prodrug, 4-(bis (2-chloroethyl)amino) benzoyl-L-glutamic acid]
[1]; Nu/Nu, mouse
  AUC, area under plasma concentration versus time curve from zero to infinity: 7.09
[1]; Nu/Nu, mouse, 41 umol/kg
  Cl, total body clearance: 1.18
  Vd, apparent volume of distribution: 0.07 L
[1]; 41 umol/kg
  AUC in liver: 62
  AUC in tumour: 3.3
[2]
  AUC, area under plasma concentration versus time curve from zero to infinity: 15.4
[3]
  Cytotoxicity against LS174T cells in culture: very little cytotox- icity
[4]
  Affinity of the enzyme for prodrug: very high affinity
[5]
  Growth of CC3 tumours: marked inhibition of growth
[6]
  Cytotoxicity against JAR cells in culture: very little cytotox- icity
[7]
  Activation of prodrug by tissues of mice which did not receive conjugate: No activation
